13 molecules from US10239880B2, “Cyclopenta[d]pyrimidines and substituted cyclopenta[d]pyrimidines as antitubulin and microtubule targeting agents, monocyclic pyrimidines as tubulin inhibitors, and pyrrolopyrimidines as targeted antifolates and tubulin and multiple receptor tyrosine kinase inhibition and antitumor agents” (Duquesne University of the Holy Spirit, priority 2015, dated 2019) can be followed below.

For one series, the target named is PDGFR-β (Homo sapiens, UniProt P09619). Briefly: Kinase inhibition, whole-cell assay, PDGFR-β. In kind it is cell-based.
Chain of PDGFR-β (P09619 33-1106, species assumed): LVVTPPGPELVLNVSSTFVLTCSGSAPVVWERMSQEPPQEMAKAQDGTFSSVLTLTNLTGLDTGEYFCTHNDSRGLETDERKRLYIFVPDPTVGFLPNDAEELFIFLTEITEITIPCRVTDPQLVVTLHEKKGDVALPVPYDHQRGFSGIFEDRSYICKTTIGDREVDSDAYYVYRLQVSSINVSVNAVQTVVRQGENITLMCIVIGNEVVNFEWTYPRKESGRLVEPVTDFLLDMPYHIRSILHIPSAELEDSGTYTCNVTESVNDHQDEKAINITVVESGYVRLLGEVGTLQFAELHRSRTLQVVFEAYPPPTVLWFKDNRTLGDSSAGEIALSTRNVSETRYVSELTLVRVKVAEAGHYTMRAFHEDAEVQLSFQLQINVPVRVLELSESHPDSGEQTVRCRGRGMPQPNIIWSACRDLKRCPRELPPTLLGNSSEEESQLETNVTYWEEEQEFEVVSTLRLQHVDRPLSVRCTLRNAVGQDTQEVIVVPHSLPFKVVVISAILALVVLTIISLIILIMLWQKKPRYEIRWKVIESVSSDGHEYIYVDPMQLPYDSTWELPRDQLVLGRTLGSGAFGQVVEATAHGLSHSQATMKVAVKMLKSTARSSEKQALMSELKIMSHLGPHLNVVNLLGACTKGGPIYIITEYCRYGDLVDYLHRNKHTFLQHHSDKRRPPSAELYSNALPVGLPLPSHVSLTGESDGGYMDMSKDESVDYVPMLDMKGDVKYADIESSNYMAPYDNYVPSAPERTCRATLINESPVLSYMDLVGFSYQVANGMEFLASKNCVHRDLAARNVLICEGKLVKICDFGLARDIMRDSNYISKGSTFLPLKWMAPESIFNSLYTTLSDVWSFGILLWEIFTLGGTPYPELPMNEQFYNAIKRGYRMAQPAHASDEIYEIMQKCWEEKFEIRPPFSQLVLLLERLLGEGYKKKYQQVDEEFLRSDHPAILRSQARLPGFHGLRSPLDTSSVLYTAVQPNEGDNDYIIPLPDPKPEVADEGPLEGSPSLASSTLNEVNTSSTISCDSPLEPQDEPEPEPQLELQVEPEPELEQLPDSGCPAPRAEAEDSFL
The target of the next series is EGFR (Homo sapiens, UniProt P00533). In words: Kinase inhibition, whole-cell assay, EGFR. It counts as cell-based.
Chain of EGFR (P00533 25-1210, species assumed): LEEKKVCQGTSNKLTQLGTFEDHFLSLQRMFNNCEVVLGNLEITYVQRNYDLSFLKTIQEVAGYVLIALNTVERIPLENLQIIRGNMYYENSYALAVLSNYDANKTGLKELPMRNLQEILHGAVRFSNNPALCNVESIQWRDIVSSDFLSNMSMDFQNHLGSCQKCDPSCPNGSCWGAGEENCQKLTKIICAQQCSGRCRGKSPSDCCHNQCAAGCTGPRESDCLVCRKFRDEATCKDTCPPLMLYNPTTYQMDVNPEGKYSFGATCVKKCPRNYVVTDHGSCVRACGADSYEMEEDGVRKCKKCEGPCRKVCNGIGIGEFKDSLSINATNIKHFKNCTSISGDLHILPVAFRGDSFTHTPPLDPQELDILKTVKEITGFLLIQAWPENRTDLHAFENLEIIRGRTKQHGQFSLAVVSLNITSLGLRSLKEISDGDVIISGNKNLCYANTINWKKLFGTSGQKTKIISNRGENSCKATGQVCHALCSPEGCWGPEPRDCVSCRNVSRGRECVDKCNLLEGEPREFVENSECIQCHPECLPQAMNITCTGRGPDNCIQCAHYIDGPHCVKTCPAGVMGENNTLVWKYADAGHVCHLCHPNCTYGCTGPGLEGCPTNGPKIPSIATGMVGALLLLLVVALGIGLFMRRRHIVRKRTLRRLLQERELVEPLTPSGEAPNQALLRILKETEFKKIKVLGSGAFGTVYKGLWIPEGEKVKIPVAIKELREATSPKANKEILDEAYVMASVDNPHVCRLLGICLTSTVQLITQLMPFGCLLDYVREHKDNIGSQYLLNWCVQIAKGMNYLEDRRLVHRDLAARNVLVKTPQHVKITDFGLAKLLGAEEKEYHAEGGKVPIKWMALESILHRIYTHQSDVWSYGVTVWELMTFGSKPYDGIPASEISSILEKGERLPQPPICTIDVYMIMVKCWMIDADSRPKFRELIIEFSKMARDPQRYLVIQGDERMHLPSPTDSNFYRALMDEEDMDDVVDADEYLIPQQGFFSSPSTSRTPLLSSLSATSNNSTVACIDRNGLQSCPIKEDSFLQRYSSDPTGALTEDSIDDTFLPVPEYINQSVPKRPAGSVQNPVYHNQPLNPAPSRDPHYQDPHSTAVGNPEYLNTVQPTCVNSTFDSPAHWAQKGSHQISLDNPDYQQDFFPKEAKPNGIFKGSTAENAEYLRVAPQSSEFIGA
The test system of another series is MDA-MB-435 cancer cells. In words: Antiproliferative effect in MDA-MB-435 cancer cells (SRB assay). In kind it is cell-based.
The next series concerns A-10 cells. Briefly: Microtubule depolymerization, cell-based phenotypic assay in A-10 cells.
Another series has as its system A431. Briefly: A431 cytotoxicity. The note with it: Homo sapiens.
The subject of another series is MDA-MB-435 xenograft. Briefly: MDA-MB-435 xenograft trial. Conditions: IP 75 mg/kg; for adverse effects / toxicity in xenograft trial: cumulative dosing.
The subject of the next series is PC43-10 (RFC). Briefly: Proliferation inhibition, RFC-expressing PC43-10 cells. It counts as cell-based, Chinese hamster. Conditions: Table 11. The source says:
AGF215, AGF234 and AGF263 were compared to AGF23 as inhibitors of proliferation of engineered Chinese hamster ovary (CHO) cells expressing human PCFT (R2/PCFT4), FRα (RT16), or RFC (PC43-10).

The subject of the next series is KB (RFC/FRα/PCFT). Briefly: Growth inhibition of KB tumor cells. It counts as cell-based, human. As to the method: Cell proliferation was assayed with CellTiter-Blue™ with a fluorescent plate reader.
In the next series the test system is Parental SK-OV-3. Briefly: Antiproliferative activity, parental SK-OV-3. Conditions: Homo sapiens, Table 6, read-out: IC50 ± SD Parental SK-OV-3. It counts as cell-based.
The subject of series [1] is Pgp expressing SK-OV-3 MDR1-6-6. Briefly: Antiproliferative activity, Pgp expressing SK-OV-3 MDR1-6-6. In kind it is cell-based. Conditions: Homo sapiens, SK-OV-3; Table 6; read-out: IC50 ± SD Pgp expressing SK-OV-3 MDR1-6-6.
The subject of another series is Parental HeLa. Briefly: Antiproliferative activity, parental HeLa. It counts as cell-based. Conditions: Homo sapiens, Table 7, read-out: IC50 ± SD Parental HeLa. The source says:
(§1) Another clinically relevant drug resistance mechanism of tubulin-targeting agents is the overexpression of the βIII isotype of tubulin.

For series [2], the system named is β-III overexpressing HeLa. In words: Antiproliferative activity, β-III overexpressing HeLa. It counts as cell-based. The note with it: Homo sapiens, HeLa; Table 7; read-out: IC50 ± SD β-III overexpressing HeLa.
Text: as §1

Setting [3] is: Table 1, IC50 ± SD, read-out: Kinase inhibition IC50 [whole-cell assays] PDGFR-β.
Setting [4] is: Table 1, IC50 ± SD, read-out: Kinase inhibition IC50 [whole-cell assays] EGFR.
The mark [5] stands for this setting: Homo sapiens, MDA-MB-435, read-out: MDA-MB-435 IC50.
The mark [6] stands for this setting: Rattus norvegicus, A10, read-out: Microtubule depolymerization EC50.
Setting [7] is: A-431, read-out: A431 cytotoxicity, Table 1, IC50 ± SD.
Setting [8] is: Table 3, read-out: MDA-MB-435 IC50.
[9] abbreviates: Table 3, read-out: Microtubule depolymerization EC50.
The mark [10] stands for this setting: Rattus norvegicus, A10, read-out: EC50 in A-10 cells (Concentration that causes 50% tubulin loss in A-10 cells), Table 4, Section II compounds.
Setting [11] is: Homo sapiens, MDA-MB-435, Table 4, Section II compounds, SRB assay, read-out: IC50 ± SD (MDA-MB-435) Cancer cells.

Structures can show the parent of a compound that is named as a salt. Where two headings read alike, the source gives them in different places.

As to `COc1ccc(N(C)c2nc(C)nc3cc[nH]c23)cc1` [1•HCl], the IC50 on PDGFR-β (setting [3]) was determined as 250 ± 20.6 nM; on EGFR (setting [4]), 29.5 ± 3.1 nM; with MDA-MB-435 cancer cells (setting [5]), 96 ± 5.3 nM; in the series on A431 (setting [7]), 215 ± 30.1 nM. In addition, the EC50 in the series on A-10 cells (setting [6]) was determined as 1200 nM.
In the case of `COc1ccc(N(C)c2nc(C)nc3ccn(C)c23)cc1` [2•HCl], the IC50 was 67 ± 10.2 nM on PDGFR-β (setting [3]); above 200 nM at PDGFR-β (Table 3b, unit inferred, read-out: PDGFR kinase inhibition); 25.2 ± 0.41 nM on EGFR (setting [4]); 89.3 ± 9.2 nM on EGFR (Table 3b, unit inferred, read-out: EGFR kinase inhibition); 4.3 ± 0.3 nM in the series on MDA-MB-435 cancer cells (setting [5]); 4.3 ± 0.3 nM in the series with MDA-MB-435 cancer cells (Homo sapiens, read-out: IC50 ± SD in MDA-435 Cells). The IC50 worked out at 8.8 ± 0.9 nM in the series on A431 (setting [7]) and 107 ± 18 nM in the series on A431 (A-431, read-out: A431 cytotoxicity, Table 3b, unit inferred). The EC50 with A-10 cells (Rattus norvegicus, A10, read-out: EC50 for Microtubule Depolymerization in A · 10 Cells) came out at 7.4 nM; in the series with A-10 cells (setting [6]) it was 7.4 nM. The “final average tumor mass compared to the vehicle” value in the series on MDA-MB-435 xenograft (Day 15) is recorded as “statistically significant (p<0.001) lower final average tumor mass”. Further, in the series on MDA-MB-435 xenograft (compared to the vehicle), the mouse weight change entry is on record as “recoverable weight loss”. Also, the “adverse effects / toxicity in xenograft trial” value is recorded as “noticeable adverse effects on the central nervous system” in the series with MDA-MB-435 xenograft (75 mg/kg); “severe seizures in two mice” with MDA-MB-435 xenograft (listed as AG 141, 75 mg/kg); “unacceptable cumulative CNS toxicities” with MDA-MB-435 xenograft (listed as AG141, 75 mg/kg). The “tumor growth during the trial” value with MDA-MB-435 xenograft (nude mice) is given as “inhibited tumor growth”.
`CSc1ccc(N(C)c2nc(C)nc3cc[nH]c23)cc1` [4•HCl]: in the series on MDA-MB-435 cancer cells (setting [8]), the IC50 was 49.9 ± 10.4 nM. In addition, the EC50 with A-10 cells (setting [9]) is 1100 nM.
For `CSc1ccc(N(C)c2nc(C)nc3ccn(C)c23)cc1` [5•HCl], in that order: 6.2 ± 1 nM and 23 nM.
As to `COc1ccc(N(C)c2nc(C)nc3ccn(C(C)C)c23)cc1.Cl` [AG174], the antitumor effects entry in the series on MDA-MB-435 xenograft (MDA-MB-435 xenograft) was “highly statistically significant (p<0.001) antitumor effects”.
Regarding `Nc1nc2[nH]c(CCCSc3ccc(C(=O)N[C@@H](CCC(=O)O)C(=O)O)cc3)cc2c(=O)[nH]1` [AGF263], the IC50 in the series with PC43-10 (RFC) is above 1000 nM; with KB (RFC/FRα/PCFT) (Table 11, read-out: IC50 RFC/FRα/PCFT KB), 0.22 nM; in the series with KB (RFC/FRα/PCFT) (with folic acid (+FA), read-out: IC50 RFC/FRα/PCFT KB (+FA)), 600 nM. Moreover, the “IC50 RFC PC43-10” value with PC43-10 (RFC) is “inactive”.
Consider `Cc1nc2c(c(N(C)c3ccc(S(C)(=O)=O)cc3)n1)CCC2` [Compd 5], for which the EC50 with A-10 cells (setting [10]) is above 10000 nM.
`CO[C@H]1CC[C@H](N(C)c2nc(C)nc3c2CCC3)CC1` [Compd 13]: the EC50 in the series on A-10 cells (setting [10]) is above 10000 nM.
Take `COc1ccc(N(C)c2nc(C)nc3c2CCC3)cc1` [Compound 1]: the IC50 was 7 ± 0.7 nM in the series on MDA-MB-435 cancer cells (setting [11]); 11.3 ± 0.2 nM with Parental SK-OV-3; 16.4 ± 0.4 nM in [1]; 12 ± 1.2 nM with Parental HeLa; 9.6 ± 0.9 nM in [2]. The EC50 in the series on A-10 cells (setting [10]) is 25.9 nM.
As for `CSc1ccc(N(C)c2nc(C)nc3c2CC(C)C3)cc1` (centres unmarked) [Compound 2], the IC50 with MDA-MB-435 cancer cells (setting [11]) amounted to 15 ± 6.5 nM; in the series with Parental SK-OV-3, 21.2 ± 4 nM; in series [1], 22.7 ± 2.7 nM; with Parental HeLa it was 19.6 ± 2 nM; in series [2] it was 14.8 ± 1.5 nM. In addition, the EC50 in the series on A-10 cells (setting [10]) is 116 nM.
For the molecule `Cc1nc2c(c(N(C)c3ccc4c(c3)CCO4)n1)CCC2` [Compound 6], the IC50 in the series with Parental SK-OV-3 is 18.7 ± 1.2 nM; in [1], 29.8 ± 5.6 nM; in the series on Parental HeLa it was 16 ± 1 nM; in [2] it was 15 ± 1 nM.
Regarding `COc1ccc(N(C)c2nc(C)nc3c2CCC3)cc1C` [Compound 7], the IC50 in the series on Parental SK-OV-3 was 23.9 ± 2.5 nM; in [1] it was 47.5 ± 2.4 nM; in the series with Parental HeLa it was 23 ± 1 nM; in series [2], 18.8 ± 1.6 nM.
Take `Cc1nc2c(c(N(C)c3ccc(N(C)C)cc3)n1)CCC2` [Compound 9]: the IC50 was 13 ± 1 nM with Parental SK-OV-3, 22.6 ± 2.3 nM in [1], 11 ± 1 nM in the series with Parental HeLa and 9.8 ± 0.9 nM in series [2].
